Assay results reported in patent US5216159A (priority 1991, dated 1993).
Where a name gives a salt, the structure may show the parent alone.

Assays:
GABAa receptor = GABAa receptor binding assay ([3H]-RO15-1788 [3H-Flumanzenil] displacement, rat cortical tissue); conditions: 0.5 nM 3H-RO15-1788, rat cortical tissue, 30 min at 4° C.
Description: The pharmaceutical utility of compounds of this invention are indicated by the following assay for GABAa receptor activity.
Assays are carried out as described in Thomas and Tallman (J. Bio. Chem. 156: 9838-9842, J. Neurosci. 3:433-440, 1983). Rat cortical tissue is dissected and homogenized in 25 volumes (w/v) of 0.05 M Tris HCl buffer (pH 7.4 at 4° C.). The tissue homogenate is centrifuged in the cold (4°) at 20,000×g for 20'. The supernatant is decanted and the pellet is rehomogenized in the same volume of buffer and again centrifuged at 20,000×g. The supernatant is decanted and the pellet is frozen at -20° C. overnight. The pellet is then thawed and rehomogenized in 25 volume (original wt/vol) of buffer and the procedure is carried out twice. The pellet is finally resuspended in 50 volumes (w/vol of 0.05 M Tris HCl buffer (pH 7.4 at […]).
Incubations contain 100 μl of tissue homogenate, 100 μl of radioligand 0.5 nM (^3 H-RO15-1788 [^3 H-Flumanzenil] specific activity 80 Ci/mmol), drug or blocker and buffer to a total volume of 500 μl. Incubations are carried for 30 min at 4° C. then are rapidly filtered through GFB filters to separate free and bound ligand. Filters are washed twice with fresh 0.05 M tris HCl buffer (pH 7.4 at 4° C.) and counted in a liquid scintillation counter. 1.0 μM diazepam is added to some tubes to determine nonspecific binding. Data are collected in triplicate determinations, averaged and % inhibition of total specific binding is calculated. Total Specific Binding=Total-Nonspecific. In some cases, the amounts of unlabeled drugs is varied and total displacement curves of binding are carried out. Data are converted to a form for the calculation of IC50 and Hill Coefficient (nH).

[1] = tested on: benzodiazepine binding site; conditions: cited from earlier work

SMILES | IC50 (GABAa receptor) [nM] | blockade of enhancement of benzodiazepine binding by GABA agonists [1]
c1ccc(-c2ncc3[nH]c4c(c3n2)COCC4)cc1 [Compound 26, 2-Phenyl-5,6,7,9-tetrahydro-5H-pyrano[4,3-b]pyrimidino[4,5-d]-pyrrole] | 400 | –
c1ccc(-c2ncc3[nH]c4c(c3n2)CCCCC4)cc1 [Compound 3, 2-Phenyl-cyclohept(g)-pyrrolo[3,2-d]-5H-pyrimidine] | 1000 | –
c1ccc(CN2CCc3[nH]c4cnc(-c5ccccc5)nc4c3C2)cc1 [Compound 32, 8-Benzyl-2-phenyl-5,6,7,9-tetrahydro-5H-pyrido[4,3-b]-pyrimidino[4,5-d]-pyrrole monohydrochloride] | 13 | –
c1ccc(-c2ncc3[nH]c4c(c3n2)CCC4)cc1 [Compound 2, 2-Phenyl-cyclopent(g)-5H-pyrrolo[3,2-d]-pyrimidine] | 110 | –
COc1ccc(-c2ncc3[nH]c4c(c3n2)CCCC4)cc1 [Compound 7, 2-(4-Methoxyphenyl)-6,7,8,9-tetrahydro-5H-indolo[3,2-d]-pyrimidine] | 39 | –
COc1ccc(-c2ncc3[nH]c4c(c3n2)CC2(CCCO2)CC4)cc1 (centres unmarked) [Compound 15, 2-(4-Methoxyphenyl)-4,5,5',6',7',9'-hexahydro-spiro[furan-2,8'(3H)-indolo[3,2-d]-pyrimidine]] | 50 | –
CN1C(=O)CCC12CCc1[nH]c3cnc(-c4ccccc4)nc3c1C2 (centres unmarked) [Compound 11, 1-Methyl-2-phenyl-5,6,7,9-tetrahydro-spiro[indolo[3,2-d]-pyrimidine-2',8-pyrrolidin-5'-one]] | 50 | –
c1ccc(-c2ncc3[nH]c4c(c3n2)CCCC4)cc1 [Compound 1, 2-Phenyl-6,7,8,9-tetrahydro-5H-indolo[3,2-d]-pyrimidine] | 100 | –
COc1ccc(-c2ncc3[nH]c4c(c3n2)CCC4)cc1 [Compound 9, 2-(4-Methoxyphenyl)-cyclopent(g)-5H-pyrrolo[3,2-d]-pyrimidine] | 18 | –
c1ccc(-c2ncc3[nH]c4c(c3n2)CC2(CC4)OCCO2)cc1 [Compound 12, 2'-Phenyl-5',6',7',9'-tetrahydro-spiro[(1,3)dioxolane-2,8'-indolo[3,2-d]-pyrimidine]] | 25 | –
CN1CCc2cc3c(cc2C1C1OC(=O)c2c1ccc1c2OCO1)OCO3 (single isomer, unassigned; (-)) [(-) bicuculline] | – | much less active
CN1CCc2cc3c(cc2C1C1OC(=O)c2c1ccc1c2OCO1)OCO3 (single isomer, unassigned; (+)) [(+) bicuculline] | – | blocked
c1ccc(COC2CCc3[nH]c4cnc(-c5ccccc5)nc4c3C2)cc1 (centres unmarked) [Compound 5, 2-Phenyl-8-benzyloxy-6,7,8,9-tetrahydro-5H-indolo[3,2-d]-pyrimidine] | 100 | –
c1csc(-c2ncc3[nH]c4c(c3n2)CCCC4)c1 [Compound 10, 2-(2-Thienyl)-6,7,8,9-tetrahydro-5H-indolo[3,2-d]-pyrimidine] | 9 | –
